{"source": "patent US4328215A", "about": "“Method of reducing or avoiding the mutagenic activity of drugs” (The Johns Hopkins University, priority 1977, dated 1982)", "key": {"[1]": {"settings": "ampicillin administered; cited from earlier work"}, "intestinal bacteria": {"system": "intestinal bacteria", "experiment": "Effect on intestinal bacterial flora of mice", "assay_type": "in vivo", "experimental": "[…] Homogenates of these organs were made with 10 ml nutrient broth (Difco) and serial dilutions were plated on nutrient agar plates. Obligatory anaerobic bacteria were counted in the same manner except that the organs were homogenized in thioglycolate (Difco) medium and the agar plates were incubated in anaerobic jars. The plates were counted after incubation for 24 hours at 37° C. There were no significant differences in counts when the incubation time was extended for 48 hours. Six mice were used for each time interval."}, "[2]": {"settings": "mice; oxamniquine alone; cited from earlier work"}, "[3]": {"experiment": "Mutagenic metabolite of oxamniquine in urine of mice", "assay_type": "in vivo", "settings": "mixture of erythromycin, bacitracin and succinyl sulfathiazole", "excerpt": "Ir also is used, though to a lesser extent, in Africa and the Mid-east for the treatment of schistosomiasis mansoni."}, "[4]": {"settings": "monkeys; oxamniquine alone; cited from earlier work"}}, "note": "Read-outs that look alike come from different tables or passages of the source. Where a SMILES comes first, the peptide text is derived from it. Bridges are numbered along the chain shown (N, C = ends). [ ]: non-standard residue; d: D form. The star is where a group is joined. Ileψ(thiazoline)Cys = CC[C@H](C)[C@H](N)C1=N[C@H](C(=O)*)CS1; dOrn = NCCC[C@@H](N)C(=O)O"}
{"molecule": "C[N+]([O-])=NCO[C@@H]1O[C@H](CO)[C@@H](O)[C@H](O)[C@H]1O", "note": "[cycasin]", "values": [{"measurement": "Formation of the aglycone after administration of ampicillin", "setting": "[1]", "result": "prevented"}]}
{"molecule": "CC[C@H](C)[C@H](N)C1=N[C@H](C(=O)N[C@@H](CC(C)C)C(=O)N[C@H](CCC(=O)O)C(=O)N[C@H](C(=O)N[C@H]2CCCCNC(=O)[C@H](CC(N)=O)NC(=O)[C@@H](CC(=O)O)NC(=O)[C@H](Cc3cnc[nH]3)NC(=O)[C@@H](Cc3ccccc3)NC(=O)[C@H]([C@@H](C)CC)NC(=O)[C@@H](CCCN)NC2=O)[C@@H](C)CC)CS1", "note": "[Bacitracin] ({Ileψ(thiazoline)Cys}-L[dE]IK[dOrn]I[dF]H[dD]N; lactam 4-C)", "values": [{"measurement": "Host-mediated assay, revertants per 10^8 bacteria, controls (no CGP 4540)", "setting": "S. typhimurium TA 100; bacitracin alone, 220 mg/kg, mice", "result": "64(±9) revertants per 10^8 bacteria"}, {"measurement": "Host-mediated assay, revertants per 10^8 bacteria, controls (no CGP 4540)", "setting": "S. typhimurium TA 100; bacitracin alone, 440 mg/kg, mice", "result": "71(±5) revertants per 10^8 bacteria"}]}
{"molecule": "CC[C@H]1OC(=O)[C@H](C)[C@@H](O[C@H]2C[C@@](C)(OC)[C@@H](O)[C@H](C)O2)[C@H](C)[C@@H](O[C@@H]2O[C@H](C)C[C@H](N(C)C)[C@H]2O)[C@](C)(O)C[C@@H](C)C(=O)[C@H](C)[C@@H](O)[C@]1(C)O", "note": "[Erythromycin]", "values": [{"measurement": "Number of aerobes in the large intestine", "setting": "intestinal bacteria; erythromycin base 100 mg/kg single oral dose, large intestine, aerobes", "result": "little, if any, change"}, {"measurement": "Number of anaerobes in the large intestine", "setting": "intestinal bacteria; erythromycin base 100 mg/kg single oral dose, large intestine, anaerobes", "result": "little, if any, change"}, {"measurement": "Total number of aerobic bacteria in the small intestine", "setting": "intestinal bacteria; erythromycin base 100 mg/kg single oral dose, small intestine, aerobes", "result": "only a moderate reduction, of relatively short duration"}, {"measurement": "Anaerobic bacteria in the small intestine", "setting": "intestinal bacteria; erythromycin base 100 mg/kg single oral dose, small intestine, anaerobes", "result": "reduced to an even lesser extent than were aerobes"}, {"measurement": "Host mediated assay, revertants per 10^8 bacteria, controls (no CGP 4540)", "setting": "S. typhimurium TA 100; antibiotic alone, 100 mg/kg oral, mice", "result": "65 (±4) revertants per 10^8 bacteria"}]}
{"molecule": "CC(C)NCC1CCc2cc(CO)c([N+](=O)[O-])cc2N1", "note": "(stereo not shown) [oxamniquine]", "values": [{"measurement": "Mutagenic metabolite in urine", "setting": "[2]", "result": "gives rise to the appearance of a mutagenic metabolite in the urine"}, {"measurement": "Appearance of the mutagenic metabolite with coadministered antibacterial agents", "setting": "[3]", "result": "completely eliminates the appearance of the mutagenic metabolite"}, {"measurement": "Mutagenic metabolite in urine", "setting": "[4]", "result": "gives rise to the appearance of a mutagenic metabolite in the urine"}]}
{"molecule": "O=C(O)CCC(=O)Nc1ccc(S(=O)(=O)Nc2nccs2)cc1", "note": "[Succinylsulfathiazole]", "values": [{"measurement": "Bacterial flora of the host's intestines", "setting": "intestinal bacteria; 1 g/kg once daily for 3 successive days, oral", "result": "reduces the bacterial flora"}, {"measurement": "Host-mediated assay, revertants per 10^8 bacteria, controls (no CGP 4540)", "setting": "S. typhimurium TA 100; in vivo", "result": "62(±5) revertants per 10^8 bacteria"}]}
